Measured values from ChEMBL document CHEMBL3862012, “Methylene versus carbonyl bridge in the structure of new tubulin polymerization inhibitors with tricyclic A-rings” (Bioorg Med Chem, 2016).

How the values were obtained:
[1] = species on record: Ovis aries; test: Inhibition of sheep brain tubulin polymerization at 100 uM by DAPI staining-based fluorimetric method relative to control
[2] = Cytotoxicity against human HCT116 cells assessed as growth inhibition after 48 hrs by SRB assay; format: functional; details: HCT-116, 48 h
[3] = Cytotoxicity against human K562 cells assessed as growth inhibition after 48 hrs by SRB assay; format: functional; details: K562, 48 h
[4] = Cytotoxicity against human MDA-MB-435 cells assessed as growth inhibition after 48 hrs by SRB assay; format: functional; details: MDA-MB-435, 48 h
[5] = Inhibition of sheep brain tubulin polymerization by DAPI staining-based fluorimetric method; parameters: species or system Ovis aries
[6] = Cytotoxicity against human A498 cells assessed as growth inhibition after 48 hrs by SRB assay; format: functional; details: A498, 48 h
[7] = Cytotoxicity against human DU145 cells assessed as growth inhibition after 48 hrs by SRB assay; format: functional; details: DU-145, 48 h
[8] = Cytotoxicity against human SF295 cells assessed as growth inhibition after 48 hrs by SRB assay; format: functional; details: SF-295, 48 h
[9] = Cytotoxicity against human OVCAR3 cells assessed as growth inhibition after 48 hrs by SRB assay; format: functional; details: OVCAR-3, 48 h
[10] = Cytotoxicity against human NCI-H460 cells assessed as growth inhibition after 48 hrs by SRB assay; format: functional; details: NCI-H460, 48 h

Compound | inhibition [1] [%] | IC50 [5] [nM] | further results
COc1ccc(CN2c3ccccc3Oc3ccccc32)c(C(F)(F)F)c1 | 44 | – | –
COc1ccc(/C=C\c2cc(OC)c(OC)c(OC)c2)cc1O [COMBRETASTATIN A4] | – | – | GI50 [2]: 2 nM; GI50 [3]: 4 nM; GI50 [4]: 3 nM
COc1ccc(CN2c3ccccc3Sc3cccnc32)cc1F | 72 | 10500 | –
COc1cc([C@@H]2c3cc4c(cc3C[C@H]3COC(=O)[C@@H]32)OCO4)cc(OC)c1OC [DESOXYPODOPHYLLOTOXIN] | 100 | 2000 | –
COc1ccc(C(=O)N2c3ccccc3Sc3ccccc32)c(C(F)(F)F)c1 | 80 | 11900 | –
COc1ccc(C(=O)c2cc(OC)c(OC)c(OC)c2)cc1O [PHENSTATIN] | 99 | 3400 | GI50 [6]: 1190 nM; GI50 [7]: 34 nM; GI50 [8]: 163 nM; GI50 [9]: 7 nM; GI50 [10]: 18 nM
COc1ccc(Cn2c3ccccc3c(=O)c3ccccc32)cc1F | 13 | – | –
